The target of this assay is B-Raf (V600E)-kinase (Homo sapiens, UniProt P15056, V600E). Kind of assay: Kinase test B-Raf (V600E). Format: biochemical. The note with it: 100% = no inhibition, 0% = total inhibition, read-out: % CTL (residual activity of the enzyme relative to DMSO control); for remaining activity at 2 µM: compound concentration 2 μM. The protocol:
In a dilution series 10 μL of test substance solution are placed in a multiwell plate. The dilution series is selected so that generally a range of concentrations of 2 μM to 0.119 nM or 0.017 nM is covered. If necessary the initial concentration of 2 μM is changed to 50 μM, 10 μM or 0.4 μM or 0.2857 μM and further dilution is carried out accordingly. The final concentration of DMSO is 5%. 10 μL of the B-Raf (V600E)-kinase solution are pipetted in (containing 0.5 ng B-Raf (V600E)-kinase in 20 mM Tris-HCl pH 7.5, 0.1 mM EDTA, 0.1 mM EGTA, 0.286 mM sodium orthovanadate, 10% glycerol, 1 mg/mL bovine serum albumin, 1 mM dithiothreitol) and the mixture is incubated for 1 h at RT under with shaking The kinase reaction is started by the addition of 20 μL ATP solution [final concentration: 250 μM ATP, 30 mM Tris-HCl pH 7.5, 0.02% Brij, 0.2 mM sodium orthovanadate, 10 mM magnesium acetate, 0.1 mM EGTA, phosphatase cocktail (Sigma, # P2850, dilution recommended by the manufacturer), 0.1 mM EGTA] and 10 μL MEK1 solution [containing 50 ng biotinylated MEK1 (prepared from purified MEK1 according to standard procedure, e.g. with EZ-Link Sulpho-NHS-LC-Biotin reagent, Pierce, # 21335) and carried out for 60 min at RT with constant shaking. The reaction is stopped by the addition of 12 μL of a 100 mM EDTA solution and incubation is continued for a further 5 min. 55 μL of the reaction solution are transferred into a streptavidin-coated plate (e.g. Streptawell HighBond, Roche, #11989685001) and shaken gently for 1 h at RT, in order to bind biotinylated MEK1 to the plate. After elimination of the liquid the plate is washed five times with 200 μL of 1×PBS and 100 μL solution of primary antibody plus europium-labelled secondary antibody [Anti Phospho-MEK (Ser217/221), Cell Signaling, # 9121 and Eu-N1 labeled goat-anti-rabbit antibody, Perkin Elmer, #AD0105], the primary antibody is diluted 1:2000 and the secondary antibody is diluted to 0.4-0.5 μg/mL in Delfia Assay Buffer (Perkin Elmer, #1244-111). After 1 h shaking at RT the solution is poured away and washed five times with 200 μL Delfia Wash Buffer (Perkin Elmer, #4010-0010/#1244-114). After the addition of 200 μL Enhancement Solution (Perkin Elmer, #4001-0010/#1244-105) the mixture is shaken for 10 min at RT and then measured in a Wallac Victor using the program “Delfia Time Resolved Fluorescence (Europium)”. IC50 values are obtained from these dosage-activity curves using a software program (GraphPadPrizm).
A value of 100% indicates no inhibition while a value of 0% indicates total inhibition. The % CTL values denote the residual activity of the enzyme after the addition of the inhibitory compound in the solvent DMSO in relation to the enzyme activity in the solvent DMSO without the addition of a compound (control). The values were determined using the B-Raf(V600E)-kinase test described above.

B-Raf (V600E)-kinase, sequence (P15056 whole entry V600E): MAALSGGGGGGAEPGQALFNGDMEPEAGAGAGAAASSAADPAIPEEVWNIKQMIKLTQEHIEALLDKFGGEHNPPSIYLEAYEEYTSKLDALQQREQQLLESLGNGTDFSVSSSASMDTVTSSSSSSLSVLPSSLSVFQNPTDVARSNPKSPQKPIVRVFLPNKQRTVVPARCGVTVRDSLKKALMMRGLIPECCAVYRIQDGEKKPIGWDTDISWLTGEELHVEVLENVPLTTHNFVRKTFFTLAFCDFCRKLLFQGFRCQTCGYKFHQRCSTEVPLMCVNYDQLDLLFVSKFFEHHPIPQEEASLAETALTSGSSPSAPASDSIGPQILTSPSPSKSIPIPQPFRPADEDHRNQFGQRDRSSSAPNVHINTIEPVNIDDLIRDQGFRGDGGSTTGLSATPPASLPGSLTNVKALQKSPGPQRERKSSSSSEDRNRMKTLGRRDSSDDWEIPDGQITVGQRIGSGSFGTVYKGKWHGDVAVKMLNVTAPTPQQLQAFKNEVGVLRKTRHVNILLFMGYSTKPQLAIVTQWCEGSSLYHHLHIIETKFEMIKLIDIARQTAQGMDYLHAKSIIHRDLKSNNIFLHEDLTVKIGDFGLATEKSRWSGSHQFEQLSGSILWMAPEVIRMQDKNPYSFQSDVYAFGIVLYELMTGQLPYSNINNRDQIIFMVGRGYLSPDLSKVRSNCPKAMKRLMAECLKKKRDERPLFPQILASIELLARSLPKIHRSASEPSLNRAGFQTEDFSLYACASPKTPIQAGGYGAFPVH

On to `Cc1ncc(C(=O)Nc2cc(OC(F)(F)F)cc(N3CCN(C)CC3)c2)cc1-n1cc(-c2cncs2)nn1` [Example I-51], for which the remaining activity at 2 µM turned out to be 4%.

As to `Cc1ncc(C(=O)Nc2cc(CN(C)C)c(Cl)c(C(F)(F)F)c2)cc1-n1cc(-c2cnn(C)c2C)nn1` [Example I-52], the remaining activity at 2 µM is 1.6%.

As for `Cc1ncc(C(=O)Nc2cc(CN3CCCC3)c(Cl)c(C(F)(F)F)c2)cc1-n1cc(-c2cnn(C)c2C)nn1` [Example I-53], the remaining activity at 2 µM came out at 1.4%.

In the case of `Cc1ncc(C(=O)Nc2cc(CNC(C)C)c(Cl)c(C(F)(F)F)c2)cc1-n1cc(-c2cnn(C)c2C)nn1` [Example I-54], the remaining activity at 2 µM came to 1.2%.

For `Cc1ncc(C(=O)Nc2cc(CNCC(C)C)c(Cl)c(C(F)(F)F)c2)cc1-n1cc(-c2cnn(C)c2C)nn1` [Example I-55], the remaining activity at 2 µM came out at 1.2%.

On to `Cc1ncc(C(=O)Nc2cc(Br)c(C)c(C(F)(F)F)c2)cc1-n1cc(-c2cnn(C)c2C)nn1` [Example I-56], for which the remaining activity at 2 µM was 1.4%.

For `CCN1CCN(c2cc(NC(=O)c3cnc(C)c(-n4cc(-c5cnn(C)c5C)nn4)c3)cc(C(F)(F)F)c2C)CC1` [Example I-57], the remaining activity at 2 µM is 2.3%.

Regarding `Cc1ncc(C(=O)Nc2cc(N3CCN(C(C)C)CC3)cc(C(F)(F)F)c2)cc1-n1cc(-c2cnn(C)c2C)nn1` [Example I-58], the remaining activity at 2 µM was 5.5%.

For `CCN1CCN(c2cc(NC(=O)c3cnc(C)c(-n4cc(-c5cnn(C)c5C)nn4)c3)cc(C(F)(F)F)c2)CC1` [Example I-59], the remaining activity at 2 µM is 13.4%.

With `Cc1ncc(C(=O)Nc2cc(N(C)CCN(C)C)cc(C(F)(F)F)c2)cc1-n1cc(-c2cnn(C)c2C)nn1` [Example I-60], the remaining activity at 2 µM stood at 7.2%.

For the compound `Cc1ncc(C(=O)Nc2cc(N3CCOCC3)c(C)c(C(F)(F)F)c2)cc1-n1cc(-c2cnn(C)c2C)nn1` [Example I-61], the remaining activity at 2 µM was determined as 8.1%.

As to `Cc1ncc(C(=O)Nc2cc(Br)cc(C(F)(F)F)c2)cc1-n1cc(-c2cnn(C)c2C)nn1` [Example I-62], the remaining activity at 2 µM stood at 2.8%.

Take `Cc1ncc(C(=O)Nc2cc(N3CC[C@H](N(C)C)C3)c(C)c(C(F)(F)F)c2)cc1-n1cc(-c2cnn(C)c2C)nn1` [Example I-63]: the remaining activity at 2 µM turned out to be 4.6%.

Turning to `COc1ccc(NC(=O)c2cnc(C)c(-n3cc(-c4cncnc4)nn3)c2)cc1C(F)(F)F` [Example I-64], the remaining activity at 2 µM came out at 6.6%.

With `Cc1ncc(C(=O)Nc2cc(N3CC[C@@H](N(C)C)C3)c(C)c(C(F)(F)F)c2)cc1-n1cc(-c2cnn(C)c2C)nn1` [Example I-65], the remaining activity at 2 µM was found to be 7.1%.

As to `Cc1ncc(C(=O)Nc2cc(N3CCCCC3)c(C)c(C(F)(F)F)c2)cc1-n1cc(-c2cnn(C)c2C)nn1` [Example I-66], the remaining activity at 2 µM was 6.4%.

For `Cc1ncc(C(=O)Nc2cc(N3CCN(C)CC3)c(C)c(C(F)(F)F)c2)cc1-n1cc(-c2cncnc2)nn1` [Example I-67], the remaining activity at 2 µM was 2.9%.

In the case of `CCNc1cc(NC(=O)c2cnc(C)c(-n3cc(-c4cnn(C)c4C)nn3)c2)cc(C(F)(F)F)c1C` [Example I-68], the remaining activity at 2 µM was 4.7%.

`Cc1ncc(C(=O)Nc2cc(N3CCOCC3)cc(C(F)(F)F)c2)cc1-n1cc(-c2cnn(C)c2C)nn1` [Example I-69]: the remaining activity at 2 µM was 2.8%.

On to `Cc1ncc(C(=O)Nc2cc(N(C)CCN(C)C)c(C)c(C(F)(F)F)c2)cc1-n1cc(-c2cnn(C)c2C)nn1` [Example I-71], for which the remaining activity at 2 µM amounted to 5.5%.

Turning to `Cc1ncc(C(=O)Nc2cc(CN3CCCC3)cc(C(F)(F)F)c2)cc1-n1cc(-c2cncnc2)nn1` [Example I-72], the remaining activity at 2 µM was 5.1%.

Consider `CCN(CC)c1cc(NC(=O)c2cnc(C)c(-n3cc(-c4cnn(C)c4C)nn3)c2)cc(C(F)(F)F)c1` [Example I-73], for which the remaining activity at 2 µM came to 1.7%.

Consider `Cc1ncc(C(=O)Nc2cc(N3CCCCC3)cc(C(F)(F)F)c2)cc1-n1cc(-c2cnn(C)c2C)nn1` [Example I-74], for which the remaining activity at 2 µM is 9%.

As to `CCNc1cc(NC(=O)c2cnc(C)c(-n3cc(-c4cnn(C)c4C)nn3)c2)cc(C(F)(F)F)c1` [Example I-75], the remaining activity at 2 µM amounted to 7.3%.

Regarding `Cc1ncc(C(=O)Nc2cc(N3CC[C@@H](N(C)C)C3)cc(C(F)(F)F)c2)cc1-n1cc(-c2cnn(C)c2C)nn1` [Example I-76], the remaining activity at 1.43 µM (measurement at 1.43 μM (***)) came to 2%.

With `Cc1ncc(C(=O)Nc2cc(N3CC[C@H](N(C)C)C3)cc(C(F)(F)F)c2)cc1-n1cc(-c2cnn(C)c2C)nn1` [Example I-77], the remaining activity at 2 µM was 1.9%.

On to `Cc1ncc(C(=O)Nc2cc(NCCN(C)C)cc(C(F)(F)F)c2)cc1-n1cc(-c2cnn(C)c2C)nn1` [Example I-78], for which the remaining activity at 2 µM stood at 2.8%.

In the case of `Cc1cn(-c2cc(NC(=O)c3cnc(C)c(-n4cc(-c5cncnc5)nn4)c3)cc(C(F)(F)F)c2)cn1` [Example I-79], the remaining activity at 2 µM was 3.6%.

For `Cc1ncc(C(=O)Nc2cc(C(C)(C)C)on2)cc1-n1cc(-c2cccnc2)nn1` [Example I-80], the remaining activity at 2 µM was found to be 1.9%.

Regarding `Cc1ncc(C(=O)Nc2cc(C(F)(F)F)ccn2)cc1-n1cc(-c2cncs2)nn1` [Example I-81], the remaining activity at 2 µM came to 1.2%.

As to `Cc1ncc(C(=O)Nc2cc(C(C)(C)C)on2)cc1-n1cc(-c2cncs2)nn1` [Example I-82], the remaining activity at 2 µM was found to be 1.6%.

For the compound `Cc1ncc(C(=O)Nc2cc(C(C)(C)C)n[nH]2)cc1-n1cc(-c2cncs2)nn1` [Example I-83], the remaining activity at 2 µM was 1.1%.

On to `COc1cncc(-c2cn(-c3cc(C(=O)Nc4cc(C(C)(C)C)n[nH]4)cnc3C)nn2)c1` [Example I-84], for which the remaining activity at 2 µM was 2.4%.

`COc1cncc(-c2cn(-c3cc(C(=O)Nc4cc(OC(F)(F)F)cc(N5CCN(C)CC5)c4)cnc3C)nn2)c1` [Example I-85]: the remaining activity at 2 µM was 1.1%.

As to `Cc1ncc(C(=O)Nc2cc(C3CCN(C)CC3)cc(C(F)(F)F)c2)cc1-n1cc(-c2cnn(C)c2C)nn1` [Example I-86], the remaining activity at 2 µM is 1.4%.

For the compound `Cc1ncc(C(=O)Nc2cc(C3=CCN(C)CC3)cc(C(F)(F)F)c2)cc1-n1cc(-c2cnn(C)c2C)nn1` [Example I-87], the remaining activity at 2 µM stood at 1.7%.

Consider `Cc1ncc(C(=O)Nc2cc(C3=CCNCC3)cc(C(F)(F)F)c2)cc1-n1cc(-c2cnn(C)c2C)nn1` [Example I-88], for which the remaining activity at 2 µM is 1.3%.

Take `COc1ccc(NC(=O)c2cnc(C)c(-n3cc(-c4cncs4)nn3)c2)cc1C(F)(F)F` [Example I-89]: the remaining activity at 2 µM came to 1.5%.

For `COc1cncc(-c2cn(-c3cc(C(=O)Nc4cc(CN5CCCC5)c(Cl)c(C(F)(F)F)c4)cnc3C)nn2)c1` [Example I-90], the remaining activity at 2 µM was found to be 2.1%.

Take `COc1cncc(-c2cn(-c3cc(C(=O)Nc4cc(CN5CCCC5)cc(C(F)(F)F)c4)cnc3C)nn2)c1` [Example I-91]: the remaining activity at 2 µM was found to be 2.5%.

Take `COc1cncc(-c2cn(-c3cc(C(=O)Nc4ccc(OC)c(C(F)(F)F)c4)cnc3C)nn2)c1` [Example I-92]: the remaining activity at 2 µM amounted to 2.5%.

With `Cc1ncc(C(=O)Nc2cc(CN(C)C)c(C)c(C(F)(F)F)c2)cc1-n1cc(-c2cnn(C)c2C)nn1` [Example I-93], the remaining activity at 2 µM was found to be 3.5%.

For `COCCN(C)Cc1cc(NC(=O)c2cnc(C)c(-n3cc(-c4cnn(C)c4C)nn3)c2)cc(C(F)(F)F)c1C` [Example I-94], the remaining activity at 2 µM came out at 3.5%.

The record behind these values is patent US8778929B2, “Substituted heteroaryl inhibitors of B-RAF” (Boehringer Ingelheim International GmbH, priority 2008, dated 2014).
